Values quoted from earlier work, collected in PMC6256996, “Natural products as new antimitotic compounds for anticancer drug development” (Clinics, 2018).
Read-outs that look alike come from different tables or passages of the source.

Experiments:
K562 cells = test system: K562 cells; parameters: method as in PMID 15787450, doi:10.1007/s11418-006-0118-3; settings: 48-hour incubation
HL-60 cells [1] = test system: HL-60 cells; parameters: method as in PMID 16316665; settings: 3 hours
HL-60 cells [2] = test system: HL-60 cells; parameters: method as in PMID 16316665
HL-60 cells [3] = test system: HL-60 cells; parameters: method as in PMID 16316665; settings: lowest treatment concentration (3.97 μmol.L^-1)
HL60 = test system: HL60; parameters: method as in doi:10.2174/1570180814666171012162557; settings: for SI PBMC/HL-60: cytotoxic selectivity index, IC50 for PBMCs/cancer cell line
OVCAR-8 = test system: OVCAR-8; parameters: method as in doi:10.2174/1570180814666171012162557; settings: for SI PBMC/OVCAR-8: cytotoxic selectivity index, IC50 for PBMCs/cancer cell line
HCT-8 = test system: HCT-8; parameters: method as in doi:10.2174/1570180814666171012162557; settings: for SI PBMC/HCT-8: cytotoxic selectivity index, IC50 for PBMCs/cancer cell line
[4] = test system: peripheral blood mononuclear cells (PBMCs); parameters: method as in doi:10.2174/1570180814666171012162557; settings: 72h of treatment; mean±SEM

Row | Structure (SMILES) | IC50, proliferation of K562 cells (K562 cells) [mg/L] | Inhibition of BrdU incorporation during the S phase (HL-60 cells [1]; 3.97 μmol.L^-1) [%] | Inhibition of BrdU incorporation during the S phase (HL-60 cells [1]; 7.95 μmol.L^-1) [%] | Inhibition of BrdU incorporation during the S phase (HL-60 cells [1]; 15.9 μmol.L^-1) [%] | Cells with DNA fragmentation (HL-60 cells [2]; HL-60 cells permeabilized with Triton X-100, 24-hour treatment, 3.97, 7.95 and 15.9 μmol.L^-1) [%] | Cell cycle arrest (DNA content) (HL-60 cells [2]; HL-60 cells, 15.9 μmol.L^-1) | Membrane damage (HL-60 cells [2]; HL-60 cells, 24-hour treatment, 3.97, 7.95 and 15.9 μmol.L^-1) | HL-60 cell population with depolarized mitochondria (HL-60 cells [3]) [%] | IC50 (HL60; 72h of treatment, mean±SEM, read-out: HL60 (mean IC50±SEM)) [µM] | SI PBMC/HL-60 (HL60; 72h of treatment) | IC50 (OVCAR-8; 72h of treatment, mean±SEM, read-out: OVCAR-8 (mean IC50±SEM)) [µM] | SI PBMC/OVCAR-8 (OVCAR-8; 72h of treatment) | IC50 (HCT-8; 72h of treatment, mean±SEM, read-out: HCT-8 (mean IC50±SEM)) [µM] | SI PBMC/HCT-8 (HCT-8; 72h of treatment) | IC50 [4] [µM] | IC50 (HL60; read-out: IC50 in HL-60 tumor cell line) [µM] | IC50 (OVCAR-8; read-out: IC50 in OVCAR-8 tumor cell line) [µM] | IC50 (HCT-8; read-out: IC50 in HCT-8 tumor cell line) [µM]
1 | COc1ccc2c(c1)O[C@@H]1c3cc(OC)c(OC)cc3OC[C@H]21 [(+)2,3,9-trimethoxypterocarpan, (+)2,3,9-Trimethoxypterocarpan] | 0.8 | 37 | 38 | 56 | ~50 | arrested at the G2/M phase transition | no significant membrane damage | 38.6 | – | – | – | – | – | – | – | – | – | –
2 | COc1cc(C(=O)N/N=C/c2ccccc2)cc(OC)c1OC [LASSBio-1586] | – | – | – | – | – | – | – | – | 0.29 ± 0.0012 | 4.60 | 0.29 ± 0.04 | 4.60 | 0.45 ± 0.081 | 3.0 | 1.34 ± 0.065 | – | – | –
3 | COc1ccc(/C=C\c2cc(OC)c(OC)c(OC)c2)cc1O [CA-4, combretastatin A-4, reference compound] | – | – | – | – | – | – | – | – | – | 1.45 | – | 6.40 | – | 0.60 | 0.0032 | – | – | –
4 | COc1cc(C(=O)N/N=C/c2cc3ccccc3s2)cc(OC)c1OC [LASSBio-1920] | – | – | – | – | – | – | – | – | – | 333.30 | – | 11.11 | – | 20.0 | 0.1 ± 0.011 | 0.0003 | 0.009 | 0.005
